# pIC50: −log10 of the molar value. Read-outs that look alike come from different tables or passages of the source.
# Assays:
# [1] = system: intracranial MDA-MB-231-BR luciferase-expressing tumors; experiment: Bioluminescence imaging of intracranial tumors; type: in vivo, Foxn1nu/nu mice
# Procedure: All animals were anesthetized via inhalation with 2% vaporized isoflurane during the imaging process. Approximately 15 min prior to imaging, all inoculated mice received an intraperitoneal (IP) injection of D-Luciferin dissolved in PBS (150 mg/kg; Caliper Life Sciences, Hopkinton, MA). To confirm the presence or absence of intracranial tumor, mice were imaged using the IVIS Lumina camera (Caliper Life Sciences, Hopkinton, MA). Images were analyzed using Living Image 4.0 Software (Caliper Life Sciences, Hopkinton, MA). All values were recorded as photons/second and were corrected for the presence of background signal.
# Treatment was ongoing until clinical symptoms necessitated sacrifice. […] Mice were weighed a minimum of three times/weekly and were monitored by optical imaging weekly until clinical symptoms (i.e. decreased response to stimuli, neurologic dysfunction, weight loss of 20% and/or a Body Composition Score of 2 or less) necessitated sacrifice.
# The Kaplan-Meier method and Log-rank tests were used to evaluate and compare overall survival among treatment groups. […] For bioluminescence imaging, fold changes were calculated relative to the start date of treatment. If present, negative imaging values (due to correction for background) were recorded and set to zero. […]
# [2] = system: intracranial MDA-MB-231-BR human triple-negative breast cancer xenografts; experiment: Efficacy study: median survival in intracranial model of breast cancer; type: in vivo, Foxn1nu/nu mice; conditions: single agent, control 26 (25-28)
# [3] = Pharmacokinetic study: sum total doxorubicin in plasma, brain tumor and brain by HPLC-FL; type: in vivo; conditions: 6 mg/kg IV x1; for AUC(0-inf): read-out: AUC0-∞ of sum total doxorubicin
# Procedure: Group 1 (n = 23) received NonL-doxo administered over 10–15 seconds at 6 mg/kg IV ×1 via tail vein.
# Approximately 1 mL of blood was collected via terminal cardiac puncture following deep anesthesia (ketamine 100 mg/kg IP ×1 and Domitor® 1 mg/kg IP ×1) using sodium heparin as an anticoagulant and centrifuged at 1,500 g for 5 minutes to collect plasma. Brain tumor, peri-tumoral brain and normal (contralateral, non-tumor) brain were collected from each mouse. Plasma, tumor, and tissues were placed in cryopreservation vials and preserved by snap freezing using liquid nitrogen. All samples were stored at −80°C until analysis.
# Total tissue and tumor weight was recorded at time of collection. Whole tissue and tumors were snap frozen in liquid nitrogen and stored at −80°C until homogenized. To form tissue and tumor homogenates, the intact tissues and tumors were thawed and sectioned. The sections were weighed and diluted in a 1:3 ratio with phosphate buffered saline (PBS) solution. Finally, these mixtures were homogenized by placing zirconium oxide beads (15 small and 2 large; Omni International Inc, Kennesaw, GA) into 2 mL tubes at […] using a Precellys 24 homogenizer (Omni International Inc, Kennesaw, GA) twice for 15 sec each with a 5 sec wait between each run.
# Samples were further processed for the analytical studies using protein precipitation with acetonitrile. An 800 µL of extraction solution containing internal standard (acetonitrile with 100 ng/mL daunorubicin) was added to 200 µL of plasma, tumor or tissue homogenate into a 2 mL microcentrifuge tube. The samples were vortexed for 10 min and centrifuged at 10,000×g for 10 min at 4°C. […] The samples were then vortexed, transferred into auto-sampler vials and analyzed by high-performance liquid chromatography (HPLC) using fluorescence (FL) detection (excitation wavelength: 490 nm/ emission wavelength: 590 nm). The HPLC-FL method to measure sum total (encapsulated and released) doxorubicin in plasma, tumor, and tissues was modified from previous studies, [23], [24].
# The area under the concentration versus time curve from 0 to ∞ (AUC0–∞) was calculated using the linear up/log down rule. The plasma volume of distribution (Vd), clearance (CL), and half-life (t1/2) were calculated using standard equations. The maximum concentration (Cmax) and time of Cmax (tmax) were determined by visual inspection of the concentration versus time data.
# MDA-MB-231-BR cells = experiment: Cell viability (MTS) assay, single agent and combination treatments; type: cell-based; conditions: Homo sapiens, read-out: IC50 (50% reduction in MTS dye conversion), 72 hours, single agent
# Procedure: A mitochondrial dye conversion assay (Cell Titer 96® Aqueous One Solution Cell Proliferation Assay; Promega Corp., Madison, WI) was used to measure cell viability after treatment. This assay was conducted according to manufacturer's instructions, with modifications. […] Cell counting was performed with an automated cell counter. Cells were allowed to adhere overnight, and media was replaced with fresh media containing a range of drug doses. After the specified treatment period, 20 µl of tetrazolium compound inner salt (MTS) containing an electron coupling reagent, phenazine ethosulfate (PES) was added in each well and incubated at 37°C for 1 hour (h). The MTS absorbance was measured spectrophotometrically at 490 nm (minus background absorbance). All cytotoxic experiments were done in triplicate.
# Drug combination interactions were analyzed using methods developed by Chou and Talalay.
# CalcuSyn (BioSoft, Cambridge, UK) was used to estimate the IC50 for each drug and to determine the combination index, which is a measurement of the type of drug interactions. A combination index (CI) of 1 indicates an additive response, <1 indicates a synergistic response, and >1 indicates an antagonistic response.
# [4] = system: formation of PAR in MDA-MB-231-BR cellular extracts; experiment: PAR levels in cellular extracts (HT PARP in vivo Pharmacodynamic Assay II); type: cell-based, human; conditions: data not shown
# Procedure: Doxorubicin (NonL-doxo) and PEGylated liposomal doxorubicin (PLD, Doxil®) were both obtained from the University of North Carolina (UNC) Hospitals Pharmacy (Chapel Hill, NC). The poly-ADP-ribose polymerase (PARP) inhibitor, ABT-888, was synthesized by the Chemistry Center for Integrative Chemical Biology and Drug Discovery at UNC (Dr. S. Frye). ABT-888 was dissolved in PBS (phosphate-buffered saline, Life Technologies, Grand Island, NY). The molecular weight of pure ABT-888 is 244.29 g/mol, while the molecular weight of the salt form (which includes 2 HCl molecules) is 317.21 g/mol. All calculations were performed using the molecular weight of the salt form of ABT-888. The ability of ABT-888 to inhibit the formation of PAR was confirmed by measuring PAR levels in MDA-MB-231-BR cellular extracts using HT PARP in vivo Pharmacodynamic Assay II (Trevigen, Gaitherburg, MD, data not shown).
# [5] = female, athymic nude (nu/nu), mouse, brain tumor
# [6] = female, athymic nude (nu/nu), mouse, normal brain
# [7] = female, athymic nude (nu/nu), mouse, peri-tumoral brain
# [8] = female, athymic nude (nu/nu), mouse, plasma
structure (smiles),measurement,setting,value
"COc1cccc2c1C(=O)c1c(O)c3c(c(O)c1C2=O)C[C@@](O)(C(=O)CO)C[C@@H]3O[C@H]1C[C@H](N)[C@H](O)[C@H](C)O1 [NonL-doxo, Doxorubicin]",highest median fold-change in bioluminescence,"[1]; 6 mg/kg IV weekly single agent, 3 weeks post-treatment",4.6
same,Median Survival and 95% CI,"[2]; 6 mg/kg IV weekly, from intracranial cell injection",23.5 (18 – 28) days
same,time after which sum total doxorubicin was undetectable,[3]; brain tumor,24 h
same,Cmax,[3]; [5],570 ng/mL
same,Tmax,[3]; [5],6 h
same,AUC(0-inf),[3]; [5],12100 ng·h/mL
same,AUC(0-inf),"[3]; female, athymic nude (nu/nu), mouse, normal (contralateral, non-tumor) brain",326 ng·h/mL
same,Cmax,[3]; [6],92 ng/mL
same,Tmax,[3]; [6],1 h
same,Cmax,[3]; [7],32 ng/mL
same,Tmax,[3]; [7],3 h
same,AUC(0-inf),[3]; [7],283 ng·h/mL
same,Cmax,[3]; [8],831 ng/mL
same,Tmax,[3]; [8],0.083 h
same,Vd,[3]; [8],56.2 L/kg
same,AUC(0-inf),"[3]; female, athymic nude (nu/nu), mouse, plasma, noncompartmental",1540 ng·h/mL
same,clearance,"[3]; female, athymic nude (nu/nu), mouse, plasma, read-out: CL of sum total doxorubicin (converted)",64.7 mL/min/kg
same,half-life,"[3]; female, athymic nude (nu/nu), mouse, plasma, read-out: t1/2 of sum total doxorubicin (converted)",10 h
same,time after which sum total doxorubicin was undetectable,"[3]; normal (contralateral, non-tumor) brain",3 h
same,time after which sum total doxorubicin was undetectable,[3]; peri-tumoral brain,6 h
same,time after which sum total doxorubicin was undetectable,[3]; plasma,24 h
same,pIC50,MDA-MB-231-BR cells,6.62
C[C@]1(c2nc3c(C(N)=O)cccc3[nH]2)CCCN1 [ABT-888],ability to inhibit the formation of PAR,[4],confirmed
same,highest median fold change from baseline in bioluminescence,"[1]; ABT-888 25 mg/kg/day OG, 4 weeks post-treatment, control 87.8 at 3 weeks",41.8
same,Median Survival and 95% CI,"[2]; ABT-888 25 mg/kg/day oral gavage, 25 mg/kg/day",27 (24 – 31) days
same,pIC50,MDA-MB-231-BR cells,3.56

# — article PMC3641071, “Pharmacokinetics and Efficacy of PEGylated Liposomal Doxorubicin in an Intracranial Model of Breast Cancer” (PLoS ONE, 2013)
